Patent US11407745B2, “Indazole derivatives and pharmaceutical composition for preventing, alleviating or treating cancer containing the same” (KOREA INSTITUTE OF SCIENCE AND TECHNOLOGY, priority 2019, dated 2022)
Where two headings read alike, the source gives them in different places.

Assays:
[1] = system: K-562 (human leukemia cancer) cells; test: MTT assay, anti-proliferative effect on K-562; format: cell-based; settings: for GI50: Homo sapiens, MTT; for fold higher inhibitory effect than imatinib (K-562 GI50): versus imatinib positive control; for fold higher inhibitory effect than nilotinib (K-562 GI50): versus nilotinib
Method: The cell line used for an MTT assay was K-562 (human leukemia cancer), and was obtained from the Korea Cell Line Bank and then cultured. The medium herein used was RPMI 1640 medium containing 10% fetal bovine serum, and the culture was conducted in a constant-temperature constant-humidity incubator (37° C., 5% CO2). The cells were seeded at a density of 3×10^3 cells/well in a 96-well microplate and cultured in a CO2 incubator for 24 hours, the medium was removed, and further culture was performed for 72 hours in 100 μl of respective inhibitor solutions diluted to different concentrations. 15 μl of an MTT solution (Promega, CellTiter 96) was added thereto and cultured for 4 hours. Then, blue formazan, formed by adding 100 μl of a stop solution (Promega, CellTiter 96), was dissolved.
After the culture solution was allowed to stand for 18 hours or more, absorbance was measured at 570 nm to obtain IC50 (a concentration at which 50% of cancer cells are inhibited).

DDR1 = DDR1 (Homo sapiens, UniProt Q08345); test: Hot Spot kinase assay, DDR1; format: biochemical; settings: for IC50: ATP 10 μM, 25° C., 120 minutes
Method: The kinase inhibitory effect of the compounds of Compound Nos. 1 to 16 was measured. Kinase analysis was conducted in a “Hot Spot” analysis platform manner. Specific kinase/substrate pairs and cofactors were prepared in a reaction buffer (20 mM HEPES (pH 7.5), 10 mM MgCl2, 1 mM EGTA, 0.02% Brij35, 0.02 mg/ml BSA, 0.1 mM Na3VO4, 2 mM DTT and 1% DMSO). 10 concentrations of compounds that were serially diluted 3 times in sequence from a concentration of 20 μM were added to the reaction mixture, and a mixture of ATP (10 μM, Sigma) and 33P ATP (Perkin Elmer) was added thereto after 20 minutes. The reaction was conducted at 25° C. for 120 minutes, the spots during the reaction were filtered using P81 ion exchange filter paper (Whatman #3698-915), and the unbound phosphate was removed by washing with 0.1% phosphoric acid using a filter.

ABL^wild [2] = target: T1, ABL^wild (Homo sapiens, UniProt P00519); test: Hot Spot kinase assay, ABL wild type; format: biochemical; settings: for IC50: ATP 10 μM, 25° C., 120 minutes
Method: (§1) Kinase analysis was conducted in a “Hot Spot” analysis platform manner. Specific kinase/substrate pairs and cofactors were prepared in a reaction buffer (20 mM HEPES (pH 7.5), 10 mM MgCl2, 1 mM EGTA, 0.02% Brij35, 0.02 mg/ml BSA, 0.1 mM Na3VO4, 2 mM DTT and 1% DMSO). 10 concentrations of compounds that were serially diluted 3 times in sequence from a concentration of 20 μM were added to the reaction mixture, and a mixture of ATP (10 μM, Sigma) and 33P ATP (Perkin Elmer) was added thereto after 20 minutes.

ABL^T315I [3] = target: T2, ABL^T315I (Homo sapiens, UniProt P00519, T315I); test: Hot Spot kinase assay, ABL T315I; format: biochemical; settings: for IC50: ATP 10 μM, 25° C., 120 minutes
Method: as §1

ABL^wild [4] = target: T1, ABL^wild; settings: positive controls, values in the references; cited from earlier work
ABL^T315I [5] = target: T2, ABL^T315I; settings: positive controls, values in the references; cited from earlier work
[6] = system: K-562 (human leukemia cancer) cells; settings: positive controls, values in the references; read-out: GI50, μm K562; cited from earlier work
CML patients = settings: primary therapeutic agent for CML patients; cited from earlier work
patients = patients administered with ponatinib; cited from earlier work
[7] = K562, 72 hours treatment, read-out: GI50, μm K562
[8] = K562, 72 hours, read-out: GI50 against K-562 cancer cells

Sequence of DDR1 (Q08345 19-913): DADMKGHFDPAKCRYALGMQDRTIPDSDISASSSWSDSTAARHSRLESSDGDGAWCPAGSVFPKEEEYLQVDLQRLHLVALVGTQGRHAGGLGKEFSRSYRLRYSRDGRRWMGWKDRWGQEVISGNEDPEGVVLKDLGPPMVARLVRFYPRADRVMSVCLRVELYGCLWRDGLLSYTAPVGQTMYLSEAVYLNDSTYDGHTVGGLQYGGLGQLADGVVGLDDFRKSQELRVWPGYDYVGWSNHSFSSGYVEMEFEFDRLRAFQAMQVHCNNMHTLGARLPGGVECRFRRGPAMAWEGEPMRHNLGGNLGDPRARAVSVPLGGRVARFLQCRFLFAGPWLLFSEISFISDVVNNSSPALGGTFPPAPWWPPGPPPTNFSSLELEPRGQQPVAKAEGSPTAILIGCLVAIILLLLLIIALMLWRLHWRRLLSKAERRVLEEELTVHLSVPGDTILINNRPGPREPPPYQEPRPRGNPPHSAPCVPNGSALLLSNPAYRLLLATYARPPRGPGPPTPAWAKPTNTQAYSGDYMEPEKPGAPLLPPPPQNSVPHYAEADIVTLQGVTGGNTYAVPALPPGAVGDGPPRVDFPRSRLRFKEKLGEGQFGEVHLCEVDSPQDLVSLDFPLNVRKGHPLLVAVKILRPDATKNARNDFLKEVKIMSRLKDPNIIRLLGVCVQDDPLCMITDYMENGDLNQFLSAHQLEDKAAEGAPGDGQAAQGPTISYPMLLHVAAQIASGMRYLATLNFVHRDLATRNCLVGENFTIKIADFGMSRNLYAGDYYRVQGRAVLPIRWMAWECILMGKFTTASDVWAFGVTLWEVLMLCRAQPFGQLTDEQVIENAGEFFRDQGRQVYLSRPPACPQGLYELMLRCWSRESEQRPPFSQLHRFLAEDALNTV

Nc1n[nH]c2cccc(C#Cc3cccc(C(=O)Nc4ccc(CN5CCOCC5)c(C(F)(F)F)c4)c3)c12 [Compound No. 16]
GI50 [1, 7]: 520 ± 1250 nM
IC50 (DDR1): 16.3 nM
IC50 (ABL^wild [2]): 103 nM
IC50 (ABL^T315I [3]): 1360 nM

CN1CCN(c2ccc(C(=O)Nc3cccc(C#Cc4cccc5[nH]nc(N)c45)c3)cc2C(F)(F)F)CC1 [Compound No. 7, N-(3-((3-Amino-1H-indazol-4-yl)ethynyl)phenyl)-4-(4-methylpiperazin-1-yl)-3-(trifluoromethyl)benzamide]
IC50 (DDR1): 31.9 nM

Nc1n[nH]c2cccc(C#Cc3cccc(NC(=O)c4ccc(N5CCOCC5)c(C(F)(F)F)c4)c3)c12 [Compound No. 8]
proliferation inhibitory effect on K-562 cancer cells (in words) [1]: excellent anti-proliferative activity
GI50 [1, 8]: 20 nM
fold higher inhibitory effect than imatinib (K-562 GI50) [1]: 13 fold
fold higher inhibitory effect than nilotinib (K-562 GI50) [1]: 4 fold
inhibitory activity against DDR1 (in words) (DDR1): excellent inhibitory activity
IC50 (DDR1): 14.7 nM
inhibitory activity against ABL (in words) (ABL^wild [2]): excellent inhibitory activity
IC50 (ABL^wild [2]): 5.21 nM
inhibitory activity against the T315I point mutation of ABL (in words) (ABL^T315I [3]): exhibited inhibitory activity
IC50 (ABL^T315I [3]): 183 nM

Nc1n[nH]c2cccc(C#Cc3cccc(NC(=O)c4cc(C(F)(F)F)cc(C(F)(F)F)c4)c3)c12 [Compound No. 2, 4N-(3-((3-Amino-1H-indazol-4-yl)ethynyl)phenyl)-3,5-bis (trifluoromethyl)benzamide]
IC50 (DDR1): 96.5 nM
IC50 (ABL^wild [2]): 667 nM

CN1CCN(Cc2cc(NC(=O)c3cccc(C#Cc4cccc5[nH]nc(N)c45)c3)cc(C(F)(F)F)c2)CC1 [Compound No. 12]
GI50 [1, 7]: 290 nM
IC50 (DDR1): 29.1 nM
IC50 (ABL^wild [2]): 60.5 nM
IC50 (ABL^T315I [3]): 1150 nM

CCN1CCN(Cc2ccc(NC(=O)c3cccc(C#Cc4cccc5[nH]nc(N)c45)c3)cc2C(F)(F)F)CC1 [Compound No. 15, 3-((3-Amino-1H-indazol-4-yl)ethynyl)-N-(4-((4-ethylpiperazin-1-yl)methyl)-3-(trifluoromethyl)phenyl)benzamide]
proliferation inhibitory effect on K-562 cancer cells (in words) [1]: excellent anti-proliferative activity
GI50 [1, 8]: 30 nM
GI50 [1, 7]: 30 nM
fold higher inhibitory effect than imatinib (K-562 GI50) [1]: 8.9 fold
fold higher inhibitory effect than nilotinib (K-562 GI50) [1]: 2.7 fold
inhibitory activity against DDR1 (in words) (DDR1): excellent inhibitory activity
IC50 (DDR1): 3.7 nM
inhibitory activity against ABL (in words) (ABL^wild [2]): excellent inhibitory activity
IC50 (ABL^wild [2]): 0.625 nM
inhibitory activity against the T315I point mutation of ABL (in words) (ABL^T315I [3]): excellent inhibitory activity
IC50 (ABL^T315I [3]): 5.82 nM

Nc1n[nH]c2cccc(C#Cc3cccc(C(=O)Nc4cccc(C(F)(F)F)c4)c3)c12 [Compound No. 9]
GI50 [1, 7]: 3750 ± 1220 nM
IC50 (DDR1): 18.4 nM
IC50 (ABL^wild [2]): 210 nM

Nc1n[nH]c2cccc(-c3ccc(C(=O)N4CCN(C(=O)c5ccc(Cl)cc5Cl)CC4)cc3)c12 [(4-(4-(3-amino-1H-indazol-4-yl)benzoyl)piperazin-1-yl)(2,4-dichlorophenyl)methanone]
IC50 (ABL^wild [4]): 14 nM
IC50 (ABL^T315I [5]): 450 nM
GI50 [6]: 6500 nM

Cc1cn(-c2cc(C(=O)Nc3cccc(C#Cc4cccc5[nH]nc(N)c45)c3)cc(C(F)(F)F)c2)cn1 [Compound No. 3]
GI50 [1, 7]: 120 nM
IC50 (DDR1): 13.1 nM
IC50 (ABL^wild [2]): 17.1 nM
IC50 (ABL^T315I [3]): 1290 nM

Cc1ccc(NC(=O)c2ccc(CN3CCN(C)CC3)cc2)cc1Nc1nccc(-c2cccnc2)n1 [Imatinib]
share of patients in whom effective (CML patients): 67%
GI50 [6]: 267 ± 30 nM

Cc1ccc(C(=O)Nc2cccc(C#Cc3cccc4[nH]nc(N)c34)c2)cc1C(F)(F)F [Compound No. 6, N-(3-((3-Amino-1H-indazol-4-yl)ethynyl)phenyl)-4-methyl-3-(trifluoromethyl)benzamide]
GI50 [1, 7]: 1620 ± 1240 nM
IC50 (DDR1): 22.6 nM
IC50 (ABL^wild [2]): 104 nM
IC50 (ABL^T315I [3]): 2960 nM

Nc1n[nH]c2cccc(C#Cc3cccc(C(=O)Nc4cc(C(F)(F)F)cc(C(F)(F)F)c4)c3)c12 [Compound No. 10, 3-((3-Amino-1H-indazol-4-yl)ethynyl)-N-(3,5-bis(trifluoromethyl)phenyl)benzamide]
GI50 [1, 7]: 460 ± 1340 nM
IC50 (DDR1): 33 nM
IC50 (ABL^wild [2]): 186 nM

Nc1n[nH]c2cccc(C#Cc3cccc(C(=O)Nc4ccc(Cl)c(C(F)(F)F)c4)c3)c12 [Compound No. 14, 3-((3-Amino-1H-indazol-4-yl)ethynyl)-N-(4-chloro-3-(trifluoromethyl)phenyl)benzamide]
GI50 [1, 7]: 3330 ± 1180 nM
IC50 (DDR1): 20 nM
IC50 (ABL^wild [2]): 255 nM

Cc1cn(-c2cc(NC(=O)c3cccc(C#Cc4cccc5[nH]nc(N)c45)c3)cc(C(F)(F)F)c2)cn1 [Compound No. 11, 3-((3-Amino-1H-indazol-4-yl)ethynyl)-N-(3-(4-methyl-1H-imidazol-1-yl)-5-(trifluoromethyl)phenyl)benzamide]
GI50 [1, 7]: 140 nM
IC50 (DDR1): 21 nM
IC50 (ABL^wild [2]): 15.4 nM
IC50 (ABL^T315I [3]): 1060 nM

Cc1cn(-c2cc(NC(=O)c3ccc(C)c(Nc4nccc(-c5cccnc5)n4)c3)cc(C(F)(F)F)c2)cn1 [Nilotinib]
GI50 [6]: 80 ± 90 nM

Nc1n[nH]c2cccc(C#Cc3cccc(NC(=O)c4cccc(C(F)(F)F)c4)c3)c12 [Compound No. 1, N-(3-((3-Amino-1H-indazol-4-yl)ethynyl)phenyl)-3-(trifluoromethyl)benzamide]
GI50 [1, 7]: 1450 ± 1160 nM
IC50 (DDR1): 53.3 nM
IC50 (ABL^wild [2]): 313 nM
IC50 (ABL^T315I [3]): 2550 nM

Nc1n[nH]c2cccc(C#Cc3cccc(NC(=O)c4cc(F)cc(C(F)(F)F)c4)c3)c12 [Compound No. 4, N-(3-((3-Amino-1H-indazol-4-yl)ethynyl)phenyl)-3-fluoro-5-(trifluoromethyl)benzamide]
GI50 [1, 7]: 2100 ± 1110 nM
IC50 (DDR1): 82.8 nM
IC50 (ABL^wild [2]): 172 nM

Nc1n[nH]c2cccc(C#Cc3cccc(NC(=O)c4cc(N5CCOCC5)cc(C(F)(F)F)c4)c3)c12 [Compound No. 5, N-(3-((3-Amino-1H-indazol-4-yl)ethynyl)phenyl)-3-morpholino-5-(trifluoromethyl)benzamide]
GI50 [1, 7]: 2140 ± 1150 nM
IC50 (DDR1): 20.1 nM
IC50 (ABL^wild [2]): 637 nM

Cc1ccc(C(=O)Nc2ccc(CN3CCN(C)CC3)c(C(F)(F)F)c2)cc1C#Cc1cnc2cccnn12 [Ponatinib]
share of patients with side effects such as thrombosis or narrowing of blood vessel walls (patients): 20%
